{"source": "patent US20080039515A1", "about": "“Arylpyrazoles And Methods Of Using Same For Control Of Insect Pests That Bore Into Trees” (The Texas A&M University System, priority 2004, published 2008)", "system": "Ips engravers beetles", "assay_type": "in vivo", "method": "Study Sites: Two 20-year-old, recently thinned loblolly pine plantations were selected in Texas. Trees in one plantation were injected for use in a bolt study (Trial 1). Trees in ½ acre section of the second plantation were injected as part of a single-tree protection study (Trial 2). A staging area also was set up in the second plantation where bolts from the first plantation were exposed to bark beetles and wood borers.\nPopulation Monitoring: A clear panel of acetate (10 cm wide by 25 cm long) was attached to the center of each bolt after deployment of bolts or 2 m high on standing trees after deployment of pheromone baits to monitor arrival of bark beetles. The top surface of each panel was coated entirely with Stikem Special® trapping compound (Michel and Pelton, Emeryville, Calif.). The traps were left in place for two weeks.\nAfter 1 (May 24), 3 (July 19) and 5 (September) months post-injection, 5 trees of each treatment were felled and two 1.5 m long bolts were removed from the 3 m and 8 m heights of the bole. Because southern pine beetle (SPB) populations were extremely low in east Texas during the study year, Ips engravers were used as alternative bark beetles for this study. The bolts were transported to a 20-year-old loblolly plantation that was recently thinned and contained fresh slash material. Each bolt was placed about 1 m apart on discarded, dry pine bolts to maximize surface area available for colonization as well as to discourage predation by ground and litter-inhabiting organisms. To facilitate timely bark beetle colonization, packets of bark beetle pheromones (racemic ipsdienol +lanerione combination, ipsenol or cis-verbenol; Phero Tech, Inc., Delta, BC, Canada) were attached separately to three 1 m stakes evenly spaced in the study area. Racemic ipsdienol and cis-verbenol were used with the second series of bolts deployed in July. The packets were removed after 2 weeks when signs of attacks (boring dust) were observed on most test bolts, signaling that naturally-produced pheromones were present.\nTreatment Evaluation: Trial 1. The first and second series of bolts were retrieved 2.5 and 3 weeks, respectively, after deployment, after observing many cerambycid attacks on most of the bolts. In the laboratory, two 10×50 cm strips (total=1000 cm^2) of bark were removed from each bolt. Several measurements were made relating to construction of nuptial chambers and egg galleries and development of brood: • 1. Number of unsuccessful attacks—penetration to phloem, but no egg galleries. • 2. Number of successful attacks—construction of nuptial chamber and at least one egg gallery extending from it. • 3. Number and lengths of egg galleries with brood galleries radiating from them. • 4. Number and lengths of egg galleries without brood galleries. • 5. Cerambycid activity, estimated by overlaying a 100 cm^2 grid over a portion of each bark strip and counting the number of squares overlapping area where cerambycids had fed.\nTreatment efficacy was determined by comparing Ips beetle attacks and egg gallery length and cerambycid feeding on treated and untreated bolts. The data were transformed by log10(x+1) to satisfy criteria for normality and homoscedasticity (Zar 1984) and analyzed by GLM and the Fishers Protected LSD test using the Statview statistical program.", "key": {"[1]": {"details": "1 month post-injection (May), bolt height 3 m"}, "[2]": {"details": "1 month post-injection (May), bolt height 8 m"}, "[3]": {"details": "3 months post-injection (July), bolt height 3 m"}, "[4]": {"details": "3 months post-injection (July), bolt height 8 m"}, "[5]": {"details": "3 months post-injection, bolt height 3 m"}, "[6]": {"details": "3 months post-injection, bolt height 8 m"}, "[7]": {"details": "5 months post-injection (Sept.), bolt height 3 m"}, "[8]": {"details": "5 months post-injection (Sept.), bolt height 8 m"}}, "note": "Like-named read-outs stand apart in the source and are kept apart here."}
{"smiles": "N#Cc1nn(-c2c(Cl)cc(C(F)(F)F)cc2Cl)c(N)c1[S+]([O-])C(F)(F)F", "note": "(stereo not drawn) [Fip, 5-amino-3-cyano-1-(2,6-dichloro-4-trifluoromethylphenyl)-4-trifluoromethylsulfinylpyrazole]", "values": [{"measurement": "Length of Egg Galleries Total", "setting": "[1]", "result": 135.0}, {"measurement": "Length of Egg Galleries With Brood", "setting": "[1]", "result": 70.6, "unit": "cm"}, {"measurement": "Length of Egg Galleries With Brood % of Total", "setting": "[1]", "result": 52.3, "unit": "%"}, {"measurement": "Length of Egg Galleries Without Brood", "setting": "[1]", "result": 64.4, "unit": "cm"}, {"measurement": "Length of Egg Galleries Without Brood % of Total", "setting": "[1]", "result": 47.7, "unit": "%"}, {"measurement": "Mean # of Ips caught/trap", "setting": "[1]", "result": 4.0}, {"measurement": "Number of Egg Galleries Total", "setting": "[1]", "result": 33.6}, {"measurement": "Number of Egg Galleries With Brood % of Total", "setting": "[1]", "result": 29.8, "unit": "%"}, {"measurement": "Number of Egg Galleries With Brood No.", "setting": "[1]", "result": 10.0}, {"measurement": "Number of Egg Galleries Without Brood % of Total", "setting": "[1]", "result": 70.2, "unit": "%"}, {"measurement": "Number of Egg Galleries Without Brood No.", "setting": "[1]", "result": 23.6}, {"measurement": "Nuptial Chambers Total", "setting": "[1]", "result": 21.0}, {"measurement": "Nuptial Chambers With Egg Galleries % of Total", "setting": "[1]", "result": 51.4, "unit": "%"}, {"measurement": "Nuptial Chambers With Egg Galleries No.", "setting": "[1]", "result": 10.8}, {"measurement": "Nuptial Chambers Without Egg Galleries No.", "setting": "[1]", "result": 10.2}, {"measurement": "Length of Egg Galleries Total", "setting": "[2]", "result": 332.8}, {"measurement": "Length of Egg Galleries With Brood", "setting": "[2]", "result": 183.2, "unit": "cm"}, {"measurement": "Length of Egg Galleries With Brood % of Total", "setting": "[2]", "result": 55.0, "unit": "%"}, {"measurement": "Length of Egg Galleries Without Brood", "setting": "[2]", "result": 149.6, "unit": "cm"}, {"measurement": "Length of Egg Galleries Without Brood % of Total", "setting": "[2]", "result": 45.0, "unit": "%"}, {"measurement": "Mean # of Ips caught/trap", "setting": "[2]", "result": 3.6}, {"measurement": "Number of Egg Galleries Total", "setting": "[2]", "result": 73.0}, {"measurement": "Number of Egg Galleries With Brood % of Total", "setting": "[2]", "result": 36.7, "unit": "%"}, {"measurement": "Number of Egg Galleries With Brood No.", "setting": "[2]", "result": 26.8}, {"measurement": "Number of Egg Galleries Without Brood % of Total", "setting": "[2]", "result": 63.3, "unit": "%"}, {"measurement": "Number of Egg Galleries Without Brood No.", "setting": "[2]", "result": 46.2}, {"measurement": "Nuptial Chambers Total", "setting": "[2]", "result": 25.8}, {"measurement": "Nuptial Chambers With Egg Galleries % of Total", "setting": "[2]", "result": 89.9, "unit": "%"}, {"measurement": "Nuptial Chambers With Egg Galleries No.", "setting": "[2]", "result": 23.2}, {"measurement": "Nuptial Chambers Without Egg Galleries % of Total", "setting": "[2]", "result": 10.1, "unit": "%"}, {"measurement": "Nuptial Chambers Without Egg Galleries No.", "setting": "[2]", "result": 2.6}, {"measurement": "Mean # of Ips caught/trap", "setting": "[3]", "result": 4.8}, {"measurement": "Nuptial Chambers Total", "setting": "[3]", "result": 12.6}, {"measurement": "Nuptial Chambers With Egg Galleries % of Total", "setting": "[3]", "result": 22.2, "unit": "%"}, {"measurement": "Nuptial Chambers With Egg Galleries No.", "setting": "[3]", "result": 2.8}, {"measurement": "Nuptial Chambers Without Egg Galleries No.", "setting": "[3]", "result": 9.8}, {"measurement": "Mean # of Ips caught/trap", "setting": "[4]", "result": 4.6}, {"measurement": "Nuptial Chambers Total", "setting": "[4]", "result": 21.0}, {"measurement": "Nuptial Chambers With Egg Galleries % of Total", "setting": "[4]", "result": 8.6, "unit": "%"}, {"measurement": "Nuptial Chambers With Egg Galleries No.", "setting": "[4]", "result": 1.8}, {"measurement": "Nuptial Chambers Without Egg Galleries No.", "setting": "[4]", "result": 19.2}, {"measurement": "Length of Egg Galleries Total", "setting": "[5]", "result": 19.4}, {"measurement": "Length of Egg Galleries With Brood", "setting": "[5]", "result": 0.0, "unit": "cm"}, {"measurement": "Length of Egg Galleries With Brood % of Total", "setting": "[5]", "result": 0.0, "unit": "%"}, {"measurement": "Length of Egg Galleries Without Brood", "setting": "[5]", "result": 19.4, "unit": "cm"}, {"measurement": "Length of Egg Galleries Without Brood % of Total", "setting": "[5]", "result": 100.0, "unit": "%"}, {"measurement": "Number of Egg Galleries Total", "setting": "[5]", "result": 5.6}, {"measurement": "Number of Egg Galleries With Brood % of Total", "setting": "[5]", "result": 0.0, "unit": "%"}, {"measurement": "Number of Egg Galleries With Brood No.", "setting": "[5]", "result": 0.0}, {"measurement": "Number of Egg Galleries Without Brood % of Total", "setting": "[5]", "result": 100.0, "unit": "%"}, {"measurement": "Number of Egg Galleries Without Brood No.", "setting": "[5]", "result": 5.6}, {"measurement": "Length of Egg Galleries Total", "setting": "[6]", "result": 9.2}, {"measurement": "Length of Egg Galleries With Brood", "setting": "[6]", "result": 1.0, "unit": "cm"}, {"measurement": "Length of Egg Galleries With Brood % of Total", "setting": "[6]", "result": 10.9, "unit": "%"}, {"measurement": "Length of Egg Galleries Without Brood", "setting": "[6]", "result": 8.2, "unit": "cm"}, {"measurement": "Length of Egg Galleries Without Brood % of Total", "setting": "[6]", "result": 89.1, "unit": "%"}, {"measurement": "Number of Egg Galleries Total", "setting": "[6]", "result": 3.0}, {"measurement": "Number of Egg Galleries With Brood % of Total", "setting": "[6]", "result": 6.7, "unit": "%"}, {"measurement": "Number of Egg Galleries With Brood No.", "setting": "[6]", "result": 0.2}, {"measurement": "Number of Egg Galleries Without Brood % of Total", "setting": "[6]", "result": 93.3, "unit": "%"}, {"measurement": "Number of Egg Galleries Without Brood No.", "setting": "[6]", "result": 2.8}, {"measurement": "Length of Egg Galleries Total", "setting": "[7]", "result": 5.8}, {"measurement": "Length of Egg Galleries With Brood", "setting": "[7]", "result": 3.4, "unit": "cm"}, {"measurement": "Length of Egg Galleries With Brood % of Total", "setting": "[7]", "result": 58.6, "unit": "%"}, {"measurement": "Length of Egg Galleries Without Brood", "setting": "[7]", "result": 2.4, "unit": "cm"}, {"measurement": "Length of Egg Galleries Without Brood % of Total", "setting": "[7]", "result": 41.4, "unit": "%"}, {"measurement": "Mean # of Ips caught/trap", "setting": "[7]", "result": 1.2}, {"measurement": "Number of Egg Galleries Total", "setting": "[7]", "result": 1.0}, {"measurement": "Number of Egg Galleries With Brood % of Total", "setting": "[7]", "result": 40.0, "unit": "%"}, {"measurement": "Number of Egg Galleries With Brood No.", "setting": "[7]", "result": 0.4}, {"measurement": "Number of Egg Galleries Without Brood % of Total", "setting": "[7]", "result": 60.0, "unit": "%"}, {"measurement": "Number of Egg Galleries Without Brood No.", "setting": "[7]", "result": 0.6}, {"measurement": "Nuptial Chambers Total", "setting": "[7]", "result": 8.0}, {"measurement": "Nuptial Chambers With Egg Galleries % of Total", "setting": "[7]", "result": 7.5, "unit": "%"}, {"measurement": "Nuptial Chambers With Egg Galleries No.", "setting": "[7]", "result": 0.6}, {"measurement": "Nuptial Chambers Without Egg Galleries % of Total", "setting": "[7]", "result": 92.5, "unit": "%"}, {"measurement": "Nuptial Chambers Without Egg Galleries No.", "setting": "[7]", "result": 7.4}, {"measurement": "Length of Egg Galleries Total", "setting": "[8]", "result": 15.2}, {"measurement": "Length of Egg Galleries With Brood", "setting": "[8]", "result": 13.0, "unit": "cm"}, {"measurement": "Length of Egg Galleries With Brood % of Total", "setting": "[8]", "result": 85.5, "unit": "%"}, {"measurement": "Length of Egg Galleries Without Brood", "setting": "[8]", "result": 2.2, "unit": "cm"}, {"measurement": "Length of Egg Galleries Without Brood % of Total", "setting": "[8]", "result": 14.5, "unit": "%"}, {"measurement": "Mean # of Ips caught/trap", "setting": "[8]", "result": 0.8}, {"measurement": "Number of Egg Galleries Total", "setting": "[8]", "result": 2.0}, {"measurement": "Number of Egg Galleries With Brood % of Total", "setting": "[8]", "result": 60.0, "unit": "%"}, {"measurement": "Number of Egg Galleries With Brood No.", "setting": "[8]", "result": 1.2}, {"measurement": "Number of Egg Galleries Without Brood % of Total", "setting": "[8]", "result": 40.0, "unit": "%"}, {"measurement": "Number of Egg Galleries Without Brood No.", "setting": "[8]", "result": 0.8}, {"measurement": "Nuptial Chambers Total", "setting": "[8]", "result": 6.6}, {"measurement": "Nuptial Chambers With Egg Galleries % of Total", "setting": "[8]", "result": 18.2, "unit": "%"}, {"measurement": "Nuptial Chambers With Egg Galleries No.", "setting": "[8]", "result": 1.2}, {"measurement": "Nuptial Chambers Without Egg Galleries % of Total", "setting": "[8]", "result": 81.8, "unit": "%"}, {"measurement": "Nuptial Chambers Without Egg Galleries No.", "setting": "[8]", "result": 5.4}]}
